Target: Carbonic anhydrase 9 (Homo sapiens, UniProt Q16790)
Assay: Inhibition of human carbonic anhydrase-9 by stopped-flow CO2 hydration assay

Row | SMILES | Ki [nM]
1 | CC(=O)O[C@@H]1[C@@H](OC(C)=O)[C@H](n2cc(-c3ccc(S(N)(=O)=O)cc3)nn2)O[C@H](COP2(=O)OCc3ccccc3O2)[C@H]1OC(C)=O (stereo not given in full) | 84.3
2 | CC(=O)O[C@@H]1[C@@H](OC(C)=O)[C@H](n2cc(-c3ccc(S(N)(=O)=O)cc3)nn2)O[C@H](COP(=O)(OCCSC(=O)C(C)(C)C)OCCSC(=O)C(C)(C)C)[C@H]1OC(C)=O | 135
3 | CC(=O)O[C@@H]1[C@@H](OC(C)=O)[C@H](S(N)(=O)=O)O[C@H](COP(=O)(OCCSC(=O)C(C)(C)C)OCCSC(=O)C(C)(C)C)[C@H]1OC(C)=O | 154
4 | NS(=O)(=O)c1ccc(-c2cn([C@@H]3O[C@H](COP(=O)(O)O)[C@@H](O)[C@H](O)[C@H]3O)nn2)cc1 | 248
5 | NS(=O)(=O)[C@@H]1O[C@H](COP(=O)(O)O)[C@@H](O)[C@H](O)[C@H]1O | 213

— ChEMBL document CHEMBL3612044, “Phosphate Chemical Probes Designed for Location Specific Inhibition of Intracellular Carbonic Anhydrases” (J Med Chem, 2015)
